Laboratory results from patent publication US20030139469A1, “Use of inhibitors of soluble epoxide hydrolase to inhibit vascular smooth muscle cell proliferation” (THE REGENTS OF THE UNIVERSITY OF CALIFORNIA, priority 2002, published 2003).

Assays:
human VSM cells [1] = assay: [3H]thymidine incorporation into DNA, human VSM cells; format: cell-based; conditions: for inhibition of DNA synthesis ([3H]thymidine incorporation): CDU 1.0 to 20 μM
Procedure: Human VSM cells were grown to 80-90% confluence and serum-starved (except where indicated) for 1 day.
FIG. 1a. Immediately following PDGF-BB (30 ng/ml) stimulation, CDU or DMSO vehicle (as a control, indicated on chart as “cont”) was added at the concentrations indicated. After 18 h, thymidine incorporation into DNA was assessed as described in Example 1.
FIG. 1b. Human VSM cells grown and challenged as in FIG. 1a, but the cells were stimulated with 10% serum rather than with PDGF-BB.
Human VSM cells were grown to 80-90% confluence and serum-starved as in FIG. 1. PDGF-BB (30 ng/ml) was added to all but control wells, followed immediately by the addition of mixed EETs and/or CDU at the concentrations indicated of total EETs. [^3H]Thymidine was added for the last 6 h of incubation, and its incorporation into DNA was assessed as described in Materials and Methods. Error bars represent SD; *p<0.05 compared to PDGF alone. Data shown are representative of two independent experiments.
Human VSM cells were grown to 80-90% confluence and serum-starved as in FIG. 1. PDGF-BB (30 ng/ml) was added to all but control wells and, at the times indicated after PDGF addition, CDU (10 μM) was added. At time=0, CDU and PDGF were added simultaneously. [^3H]Thymidine was added for the last 6 h of incubation and its incorporation into DNA was assessed as described in Example 1. Error bars represent SD; *p<0.05 compared to PDGF alone. Data shown are representative of three independent experiments.
Cell Culture. Human aortic smooth muscle cells were obtained from Clonetics (San Diego Calif.) at passage 3 and were maintained in MCBD 131 media supplemented with 2.5% FBS, 5 mg/L bovine insulin, 2 ug/L human recombinant EGF, 1 ug/L human recombinant PDGF-BB (“PDGF” is platelet derived growth factor, which is composed of a dimer of two chains, the A chain and the B chain, “PDGF-BB is a 24.3 kD homodimer of two B chains), 100 u/ml of penicillin, 100 u/ml streptomycin, and 2.5 ug/ml amphotericin B. The cells were growth-arrested by placing them in quiescence medium containing MCDB 131 medium, 20 mM HEPES (pH 7.4), 5 mg/ml transferrin, 0.5 mg/ml BSA, 50 U/ml penicillin, 50 U/ml streptomycin, and 2.5 ug/ml amphotericin B. Quiescence medium was changed daily for 1-2 days before each experiment. HL-60 cells were obtained from ATCC or from D. Hyde (UC Davis). HL-60 cells were cultured at cell densities between 2×10^5 and 8×10^5 cells/mL in RPMI-1640 (Mediatech) supplemented with 10% fetal calf serum.
Proliferation Assays. [^3H]thymidine incorporation assays were performed. […] At the indicated times, the number of cells in the plate was calculated by subjecting the cells to trypsinization and the cell density quantitated by light microscopy using a hemocytometer.

Met-1 breast tumor cells = assay: Met-1 breast tumor cell proliferation; format: cell-based; conditions: up to 20 μM
human VSM cells [2] = assay: trypan blue exclusion, VSM cells; format: cell-based; conditions: 12 μM
Procedure: (§1) Evaluation of Cell Membrane Integrity and Toxicity. To evaluate the toxicity of compounds, as indicated by cellular trypan blue permeability, cells were plated in 35 mm dishes. After two days, the medium in the dish was replaced with fresh medium supplemented with the compound of interest or vehicle. At the indicated time post-treatment, the supernatant was removed and adherent cells were removed using trypsin. After dislodging the adherent cells, the cell suspension was pooled with the supernatant and centrifuged. The resulting cell pellet was resuspended and a trypan blue solution (0.4% in normal saline) was added to the aliquot. After incubating for approximately 5 minutes, the sample was evaluated by light microscopy. To evaluate lactate dehydrogenase (LDH) release, cells were harvested and plated onto 24 well plates and serum starved for one to two days. Test compounds were added and after 65 hours, media was removed for measurement of LDH activity. LDH activity was determined by NADH oxidation using Sigma Tox-7 in vitro toxicology kit and reported as the amount of LDH activity in the media.

human VSM cells [3] = assay: LDH release into media; format: cell-based; conditions: PDGF-BB or 10% serum, CDU 10 and 20 μM, FIG. 4b
Procedure: as §1, with “FIG. 4b. Human VSM cells were grown continuously in the presence of either 10% serum or PDGF-BB (30 ng/ml). Upon achieving confluency, the cells were incubated with CDU at the indicated concentrations and LDH release into the media was measured as described in Example 1. Evaluation” for “Evaluation”

HT-29 colon cancer cells = assay: MTT assay HT-29; format: cell-based; conditions: up to 40 μM
[4] = tested on: HTB-30 breast cancer cells; assay: MTT assay HTB-30; format: cell-based; conditions: up to 40 μM
[5] = tested on: LnCap prostate cancer cells; assay: MTT assay LnCap; format: cell-based; conditions: up to 40 μM
cyclin D1 = assay: Western blot cyclin D1 in VSM cells; format: cell-based, human; conditions: 10 μM, PDGF-BB, 6 to 18 h, vs DMSO vehicle, FIG. 7
Procedure: (§2) Human VSM cells were grown to 80-90% confluence and serum-starved as in FIG. 1. […] Data shown are representative of at least two independent experiments. Western Blots. After treatment with appropriate compounds for the indicated times, cells were lysed, protein concentrations were determined by the Lowry method, and equal protein quantities were electrophoresed and Western blotted.

cyclin E = assay: Western blot cyclin E in VSM cells; format: cell-based, human; conditions: 10 μM, PDGF-BB, 6 to 18 h, FIG. 7
Procedure: as §2

## CCCCCCCCCCCCNC(=O)NC1CCCCC1 [CDU, 1-cyclohexyl-3-dodecyl urea]
Human VSM cells [1]; 10 μM CDU, PDGF-BB 30 ng/ml, FIG. 5
  time of CDU addition after PDGF with most profound inhibition: 4 h
Human VSM cells [1]; 10% serum stimulated, FIG. 1b
  inhibition of DNA synthesis ([3H]thymidine incorporation): dose-dependent inhibition of DNA synthesis
Human VSM cells [1]; PDGF-BB (30 ng/ml) stimulated, 18 h, FIG. 1a
  inhibition of DNA synthesis ([3H]thymidine incorporation): dose-dependent inhibition of DNA synthesis
Human VSM cells [1]; PDGF-BB, EETs 5 to 10 μM total, CDU 2.5 and 10 μM, separately or together, FIG. 3
  PDGF-stimulated [3H]thymidine incorporation: inhibition of PDGF-stimulated [^3H]thymidine incorporation
Met-1 breast tumor cells
  effect on Met-1 cells: lack of effect
Human VSM cells [2]; 8 h
  cells stained blue (trypan blue): 3.4%
Human VSM cells [2]; 24 h
  cells stained blue (trypan blue): 3.0%
Human VSM cells [3]
  LDH appearance in the media: unchanged
HT-29 colon cancer cells
  toxicity, MTT assay: no toxicity observed
[4]
  toxicity, MTT assay: no toxicity observed
[5]
  toxicity, MTT assay: no toxicity observed
Cyclin D1
  induction of cyclin D1 levels: profoundly decreased induction
Cyclin E
  effect on cyclin E levels: minimal effect
